The source of these data is patent publication US6037357A, “N-benzoyl-α-alkylated azatyrosines as anticancer agents” (Unitech Pharmaceuticals, Inc., priority 1999, dated 2000).

“Also recorded” adds a separate entry of the source.

For data set [1], the system named is breast cancer cell (BC-M1). The data set is described as follows: Cytotoxic assay by colorimetric MTT assay (growth inhibition), breast cancer. Format: cell-based, human. The settings on record: for IC50: Homo sapiens, 72 h, BC-M1, 10000 cells per well, 3 days incubation, mean of 4 experiments. The procedure:
(§1) The in-vitro studies for evaluating these α-alkylatedderivatives of azatyrosine were performed and the general procedures are listed as follow:
(§2) Human stomach cancer cell line (SC-M1), and human breast cancer cell line (BC-M1) sampled from inpatients at Tri-service General Hospital in Taipei (Taiwan) were cultured and used in the experiments. All cells from primary culture and subculture were grown in 10% RPMI 1640 supplemented with 100 U/mL penicillin G, 100 μg/mL amphotericin B, and 10% fetal calf serum (FCS) in a 5% CO2 incubator at 37° C.
(§3) The cytotoxicity of these compounds against cultured cancer cells was determined by utilizing in-vitro MTT assay. L-azatyrosine and its α-alkylated derivatives were dissolved in milli-Q water at a concentration of 1 mg/mL and diluted with 10% FCS-RPMI to various concentrations, respectively. Single cell suspension (100 μL) and each compounds (100 μL) were added to 96-well flat-bottom microplate. 10% FCS-RPMI (100 μL) was used as a control group. After 3 days incubation at 37° C. in a 5% CO2 incubator, stock MTT (10 μL of 5 mg/mL for each 100 μL solution in well) solution was added to all wells. After additional 2 h incubation in a 5% CO2 incubator, The mixture was centrifuged (1000 rpm for 5 min) and the supernatant was carefully pipetted out. The residue was mixed well with DMSO (100 μL). The optical density of plates was recorded on a MRX Spectrophotometer (Dynatech, Guernsey, UK) at a wavelength of 550 nm.
(§4) Fractional inhibition was calculated as [1-(optical density of sample/optical density of control)]. The IC50 values for each compound were determined as a parameter for cytotoxicity, which is the concentration of a test compound exerting 50% survival of cancer cells, compared to untreated controls. Each value is the mean of four experiments. A specific example of the in-vitro study is shown Example 8.
(§5) A series of α-alkylated derivatives of L-azatyrosine were studied for their in-vitro effects according to the above procedures. The growth inhibition of L-azatyrosine and its derivatives on human cancer cell lines (BC-M1 and SC-M1) has been shown on Table 1.
In general terms: Formazan colour is commonly taken as a measure of viable cells.

For data set [2], the system named is stomach cancer cell (SC-M1). Put plainly: Cytotoxic assay by colorimetric MTT assay (growth inhibition), stomach cancer. Format: cell-based, human. The following applies: for IC50: Homo sapiens, 72 h, SC-M1, 10000 cells per well, 3 days incubation, mean of 4 experiments. The procedure:
as §1, §2, §3, §4, §5

The test system of data set [3] is activated c-Ha-ras-transformed NIH3T3 cells. The settings on record: cited from earlier work.
In data set [4] the test system is cells possessing normal ras gene. The following applies: cited from earlier work.
Data set [5] relates to 7,12-dimethylbenz[a]anthracene or methylnitrosourea-induced carcinogenesis in mice. The settings on record: mice harboring a normal c-Ha-ras gene; cited from earlier work.
The subject of data set [6] is pappilomas induced by a chemical carcinogen. The settings on record: 2 mg/mouse once every two days for 12 days; cited from earlier work.
Data set [7] relates to TSU-Prl. The settings on record: incubation for 7 days; cited from earlier work.
Data set [8] relates to DU-145. The following applies: incubation for 7 days; cited from earlier work.
In data set [9] the test system is PC-3. The following applies: incubation for 7 days; cited from earlier work.
For data set [10], the system named is human prostate cancer cells. The settings on record: cited from earlier work.
In data set [11] the test system is anticancer activity. The settings on record: cited from earlier work.
The subject of data set [12] is prostate tumorigenic growth. The settings on record: cited from earlier work.

As to `CC(C)CC(Cc1ccc(O)cn1)(NC(=O)c1ccccc1)C(=O)N[C@@H](C)c1ccccc1` (mixture of isomers) [Compound 10b, N-Benzoyl-α-isobutyl-DL-azatyrosyl-(S)-1-phenylethylamide], in data set [1], the “cytotoxicity / growth inhibition compared with L-azatyrosine (in words), BC-M1” value is given as “higher growth inhibition than that of L-azatyrosine” and the concentration for half-maximal inhibition (IC50) was 300 µM. In addition, in data set [2], the IC50 amounted to 300 µM and the “cytotoxicity / growth inhibition compared with L-azatyrosine (in words), SC-M1” value is reported as “higher growth inhibition than that of L-azatyrosine”.
Consider `C[C@H](NC(=O)C(Cc1ccccc1)(Cc1ccc(O)cn1)NC(=O)c1ccccc1)c1ccccc1` (mixture of isomers) [Compound 10c, N-Benzoyl-α-benzyl-DL-azatyrosyl-(S)-1-phenylethylamide], for which, in [1], the “cytotoxicity / growth inhibition compared with L-azatyrosine (in words), BC-M1” value is “higher growth inhibition than that of L-azatyrosine” and it took 600 µM to reach half-maximal inhibition (IC50). In data set [2], the midpoint of inhibition, the IC50, lay at 80 µM and the “cytotoxicity / growth inhibition compared with L-azatyrosine (in words), SC-M1” value is “higher growth inhibition than that of L-azatyrosine; also recorded: excellent cytotoxicity on SC-M1 compared with L-azatyrosine”.
For `CC(Cc1ccc(O)cn1)(NC(=O)c1ccccc1)C(=O)O` (racemic) [Compound 8a, N-Benzoyl-α-methyl-DL-azatyrosine], the IC50 was 1300 µM in data set [1] and 800 µM in [2].
Consider `CC(C)CC(Cc1ccc(O)cn1)(NC(=O)c1ccccc1)C(=O)O` (racemic) [Compound 8b, N-Benzoyl-α-isobutyl-DL-azatyrosine], for which the IC50 in data set [1] is 1000 µM; in data set [2], 1200 µM.
On to `O=C(NC(Cc1ccccc1)(Cc1ccc(O)cn1)C(=O)O)c1ccccc1` (racemic) [Compound 8c, N-benzoyl-α-benzyl-DL-azatyrosine], for which the concentration for half-maximal inhibition (IC50) in data set [1] and in data set [2] was 600 µM each time.
As to `CCOC(=O)C(Cc1ccc(O)cn1)(CC(C)C)NC(=O)c1ccccc1` (racemic) [Compound 9b, Ethyl N-benzoyl-α-isobutyl-DL-azatyrosinate], the half-inhibitory concentration (IC50) in data set [1] is 700 µM; in data set [2] it was 600 µM.
On to `CCOC(=O)C(Cc1ccccc1)(Cc1ccc(O)cn1)NC(=O)c1ccccc1` (racemic) [Compound 9c, Ethyl N-benzoyl-α-benzyl-DL-azatyrosinate], for which the IC50 came out at 900 µM in data set [1] and 1000 µM in [2].
With `N[C@@H](Cc1ccc(O)cn1)C(=O)O` [L-Azatyrosine, L-azatyrosine], the concentration for half-maximal inhibition (IC50) in data set [1] was found to be 2200 µM; in data set [2] it was 1600 µM. For the same compound, the “reversion of activated c-Ha-ras-transformed NIH3T3 cells to the apparently normal phenotype” value in [3] is “induces permanent reversion”. In data set [4], the “effect on the growth of cells possessing normal ras gene” value is reported as “without significantly affecting the growth”. For the same compound, in data set [5], the “inhibition of 7,12-dimethylbenz[a]anthracene or methylnitrosourea-induced carcinogenesis” value is recorded as “inhibits”. Further, the “block of pappilomas induced by a chemical carcinogen” value in data set [6] is “can block pappilomas”. Moreover, in data set [7], the “in-vitro growth inhibition, TSU-Prl” value was “greater than 95%”. Moreover, the “in-vitro growth inhibition, DU-145” value in data set [8] is reported as “greater than 95%”. Moreover, the “in-vitro growth inhibition, PC-3” value in data set [9] is given as “greater than 95%”. Further, the “reversion efficiency on human prostate cancer cells” value in data set [10] is on record as “high reversion efficiency”. Besides, in [11], the “concentrations required for the anticancer activity” value is 1 to 2 mM. The “inhibition of prostate tumorigenic growth” value in [12] was “inhibit prostate tumorigenic growth”.

As usually defined, the IC50 is the concentration that inhibits the measured activity by half.
